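48-hour exposure; five concentrations; linearly interpolated endpoints. Abbreviation: GI50, concentration required for 50% inhibition of growth. At the TGI there is no net growth.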
What was measured:
Assay in all cases: growth of human tumour cells (NCI), 48 h
SF-539 CNS = tested on: SF-539 CNS
U251 CNS = tested on: U251 CNS
SR leukemia = tested on: SR leukemia
UO-31 renal = tested on: UO-31 renal
HT29 colon = tested on: HT29 colon
HCT-116 colon = tested on: HCT-116 colon
NCI-H460 lung = tested on: NCI-H460 lung
CAKI-1 renal = tested on: CAKI-1 renal
NCI/ADR-RES ovarian = tested on: NCI/ADR-RES ovarian
SK-MEL-5 melanoma = tested on: SK-MEL-5 melanoma
SK-OV-3 ovarian = tested on: SK-OV-3 ovarian
TK-10 renal = tested on: TK-10 renal
ACHN renal = tested on: ACHN renal
MCF7 breast = tested on: MCF7 breast
SNB-75 CNS = tested on: SNB-75 CNS
UACC-62 melanoma = tested on: UACC-62 melanoma
SK-MEL-2 melanoma = tested on: SK-MEL-2 melanoma
KM12 colon = tested on: KM12 colon
M14 melanoma = tested on: M14 melanoma
HCC-2998 colon = tested on: HCC-2998 colon
UACC-257 melanoma = tested on: UACC-257 melanoma
RPMI-8226 leukemia = tested on: RPMI-8226 leukemia
A498 renal = tested on: A498 renal
OVCAR-3 ovarian = tested on: OVCAR-3 ovarian
CCRF-CEM leukemia = tested on: CCRF-CEM leukemia
HOP-92 NSCLC = tested on: HOP-92 NSCLC
SN12C renal = tested on: SN12C renal
IGROV1 ovarian = tested on: IGROV1 ovarian
RXF 393 renal = tested on: RXF 393 renal
DU-145 prostate = tested on: DU-145 prostate
HCT-15 colon = tested on: HCT-15 colon
T-47D breast = tested on: T-47D breast
SF-295 CNS = tested on: SF-295 CNS
A549 NSCLC = tested on: A549 NSCLC
BT-549 breast = tested on: BT-549 breast
MDA-MB-435 = tested on: MDA-MB-435
OVCAR-5 ovarian = tested on: OVCAR-5 ovarian
K-562 leukemia = tested on: K-562 leukemia
SK-MEL-28 melanoma = tested on: SK-MEL-28 melanoma
MOLT-4 leukemia = tested on: MOLT-4 leukemia
NCI-H23 lung = tested on: NCI-H23 lung
HL-60(TB) leukemia = tested on: HL-60(TB) leukemia
OVCAR-8 ovarian = tested on: OVCAR-8 ovarian
PC-3 prostate = tested on: PC-3 prostate
786-0 renal = tested on: 786-0 renal
SF-268 CNS = tested on: SF-268 CNS
OVCAR-4 ovarian = tested on: OVCAR-4 ovarian
MALME-3M melanoma = tested on: MALME-3M melanoma
COLO 205 colon = tested on: COLO 205 colon
SNB-19 CNS = tested on: SNB-19 CNS
NCI-H226 lung = tested on: NCI-H226 lung
NCI-H522 lung = tested on: NCI-H522 lung
LOX IMVI melanoma = tested on: LOX IMVI melanoma
HOP-62 NSCLC = tested on: HOP-62 NSCLC
HS 578T breast = tested on: HS 578T breast
SW-620 colon = tested on: SW-620 colon

## Cc1ccc2c(n1)C(=O)C(Cl)=C(Nc1cccc(C(F)(F)F)c1)C2=O
SF-539 CNS
  GI50: 3.18 µM
  TGI: 10.3 µM
U251 CNS
  GI50: 6.45 µM
  TGI: 24.8 µM
SR leukemia
  GI50: 1.56 µM
  TGI: 5 µM
UO-31 renal
  GI50: 1.54 µM
  TGI: 2.95 µM
HT29 colon
  GI50: 2.6 µM
  TGI: 6.63 µM
HCT-116 colon
  GI50: 1.51 µM
  TGI: 3.22 µM
NCI-H460 lung
  GI50: 18.4 µM
  TGI: 40.8 µM
CAKI-1 renal
  GI50: 1.58 µM
  TGI: 3.01 µM
NCI/ADR-RES ovarian
  GI50: 2.65 µM
  TGI: 7.88 µM
SK-MEL-5 melanoma
  GI50: 2.75 µM
  TGI: 7.84 µM
SK-OV-3 ovarian
  GI50: 14.2 µM
  TGI: 27.6 µM
TK-10 renal
  GI50: 2.01 µM
  TGI: 3.52 µM
ACHN renal
  GI50: 1.78 µM
  TGI: 3.31 µM
MCF7 breast
  GI50: 1.85 µM
  TGI: 4.66 µM
SNB-75 CNS
  GI50: 13 µM
  TGI: 27.4 µM
UACC-62 melanoma
  GI50: 4.28 µM
  TGI: 18.4 µM
SK-MEL-2 melanoma
  GI50: 2.38 µM
  TGI: 5.73 µM
KM12 colon
  GI50: 15.9 µM
  TGI: 32.3 µM
M14 melanoma
  GI50: 1.92 µM
  TGI: 4.39 µM
HCC-2998 colon
  GI50: 2.6 µM
  TGI: 6.48 µM
UACC-257 melanoma
  GI50: 1.65 µM
  TGI: 3.24 µM
RPMI-8226 leukemia
  GI50: 1.92 µM
  TGI: 5.91 µM
A498 renal
  GI50: 13.8 µM
  TGI: 27.9 µM
OVCAR-3 ovarian
  GI50: 1.68 µM
  TGI: 3.11 µM
CCRF-CEM leukemia
  GI50: 1.46 µM
  TGI: 4.71 µM
HOP-92 NSCLC
  GI50: 1.91 µM
  TGI: 3.89 µM
SN12C renal
  GI50: 2.16 µM
  TGI: 5.66 µM
IGROV1 ovarian
  GI50: 1.87 µM
  TGI: 3.6 µM
RXF 393 renal
  GI50: 1.61 µM
  TGI: 3 µM
DU-145 prostate
  GI50: 1.8 µM
  TGI: 3.31 µM
HCT-15 colon
  GI50: 1.66 µM
  TGI: 3.55 µM
T-47D breast
  GI50: 1.93 µM
  TGI: 4.8 µM
SF-295 CNS
  GI50: 16.3 µM
  TGI: 31.2 µM
A549 NSCLC
  GI50: 20.1 µM
  TGI: 50 µM
BT-549 breast
  GI50: 2.16 µM
  TGI: 5.47 µM
MDA-MB-435
  GI50: 1.95 µM
  TGI: 3.91 µM
OVCAR-5 ovarian
  GI50: 6.03 µM
  TGI: 22.1 µM
K-562 leukemia
  GI50: 0.31 µM
  TGI: 1.3 µM
SK-MEL-28 melanoma
  GI50: 1.95 µM
  TGI: 3.66 µM
MOLT-4 leukemia
  GI50: 1.69 µM
  TGI: 5.38 µM
NCI-H23 lung
  GI50: 1.82 µM
  TGI: 4.67 µM
HL-60(TB) leukemia
  GI50: 1.5 µM
  TGI: 3.68 µM
OVCAR-8 ovarian
  GI50: 2.68 µM
  TGI: 8.93 µM
PC-3 prostate
  GI50: 2.9 µM
  TGI: 11.5 µM
786-0 renal
  GI50: 1.8 µM
  TGI: 3.55 µM
SF-268 CNS
  GI50: 4.76 µM
  TGI: 19.6 µM
OVCAR-4 ovarian
  GI50: 1.56 µM
  TGI: 3.27 µM
MALME-3M melanoma
  GI50: 1.79 µM
  TGI: 3.61 µM
COLO 205 colon
  GI50: 1.82 µM
  TGI: 3.78 µM
SNB-19 CNS
  GI50: 16 µM
  TGI: 45.3 µM
NCI-H226 lung
  GI50: 2.57 µM
  TGI: 11.5 µM
NCI-H522 lung
  GI50: 2.03 µM
  TGI: 5.12 µM
LOX IMVI melanoma
  GI50: 1.51 µM
  TGI: 3.33 µM
HOP-62 NSCLC
  GI50: 17 µM
  TGI: 31.8 µM
HS 578T breast
  GI50: 15.1 µM
  TGI: 85.6 µM
SW-620 colon
  GI50: 2.05 µM
  TGI: 4.89 µM

Source: PubChem BioAssay (NCI)
